# Measurements: patent US20170368134A1, “PROTEASOME INHIBITORS FOR TREATING A DISORDER RELATED TO AN ACCUMULATION OF NON-DEGRADED ABNORMAL PROTEIN OR A CANCER” (UNIVERSITÉ D'AIX-MARSEILLE, priority 2015, published 2017)
# Peptide text beside a SMILES is read from it. * marks the point of attachment. Cbz = O=C(OCc1ccccc1)*
# Columns and labels:
# Assay type in all cases: cell-based, human
# progerin [1] = test: Western blot of progerin levels in HGPS fibroblasts; settings: for reduction in progerin amounts: normalized with tubulin, vs DMSO-treated HGPS cells
# Method: HGPS fibroblasts (AG01972: person, AG11498: person) were obtained from the Coriell Cell Repository. Cells were cultured in Dulbecco's modified Eagle's medium (Life Technologies) supplemented with 15% fetal bovine serum (Life Technologies), 2 mM L-glutamine (Life Technologies) and 1× penicillin-streptomycin (Life Technologies) at 37° C. in a humidified atmosphere containing 5% CO2. […]
# Total fibroblast proteins were extracted in 200 μL of NP40 Cell Lysis buffer (Invitrogen, Carlsbad, Calif.) containing Protease and Phosphatase Inhibitor Cocktail (Thermo Scientific). Alternatively, cells were lysed with urea (8 M urea, 5 mM dithiothreitol, 150 mM NaCl, 50 mM Tris-Cl pH 7.5, protease and phosphatase Inhibitor Cocktail (Thermo Scientific)). Cells were sonicated twice (30 sec each), incubated at 4° C. for 30 minutes and then centrifuged at 10,000 g for 10 minutes. Protein concentration was evaluated with the bicinchoninic acid technique (Pierce BCA Protein Assay Kit), absorbance at 562 nm is measured using nanodrop 1000 (Thermo Fisher Scientific Inc.) Equal amounts of proteins (40 μg) were loaded onto 10% Tis-Glycine gel (Criterion™ XT precast gel) using XT Tricine running Buffer (Biorad, USA). After electrophoresis, gels were electro transferred onto nitrocellulose membranes or Immobilon-FL polyvinylidene fluoride membranes (Millipore), blocked in Odyssey Blocking Buffer diluted 1:1 in PBS for 1 hour at room temperature, and incubated overnight at 4° C. or 2 hours at room temperature with various primary antibodies. Blots were washed with TBS-T buffer [20 mM tris (pH 7.4), 150 mM NaCl, and 0.05% Tween 20] and incubated with 1:10,000 IR-Dye 800-conjugated secondary donkey anti-goat or IR-Dye 700-conjugated secondary anti-mouse antibodies (LI-COR Biosciences) in Odyssey blocking buffer (LI-COR Biosciences). For IR-Dye 800 and IR-Dye 700 detection, an Odyssey Infrared Imaging System (LI-COR Biosciences) was used. GAPDH, α-tubulin or β-actin were used as a total cellular protein loading control.
# lamin C mRNA = test: qRT-PCR of lamin C transcripts in HGPS cells; settings: 10 μM MG132 time-course
# Method: Total RNA was isolated using the RNeasy plus extraction kit (Qiagen, Valencia, Calif.). 1 μg of RNA was reverse transcribed using the High Capacity cDNA Reverse Transcription Kit (Applied Biosystems). Real time PCR amplification was carried out with the TaqMan® Gene Expression Master Mix (Applied Biosystems) on a LightCycler 480 (Roche, Germany) using pre-designed primers for GAPDH (Hs00266705_g1), Progerin (F: […] (SEQ ID NO:3) R: […] (SEQ ID NO:4) and probe: […] (SEQ ID NO:5)), Lamin A (F: […] (SEQ ID NO:6) R: […] (SEQ ID NO:7) and probe: […] (SEQ ID NO:8)) and lamin C (F: […] (SEQ ID NO:9) R: […] (SEQ ID NO:10) and probe: […] (SEQ ID NO:11)) (Applied Biosystems) using the program: UNG incubation at 50° C. for 2 minutes, initial denaturation at 95° C. for 10 minutes, 40 cycles of amplification: denaturation at 95° C. for 15 seconds and annealing at 60° C. for 1 minute. All PCR reactions were performed in triplicate. Threshold cycle (Ct) values were used to calculate relative mRNA expression by the 2-ΔΔ^T relative quantification method with normalization to GAPDH expression.
# [2] = tested on: HGPS fibroblasts, HGPS derived iPS-MSC or iPS-VSMC; test: CellTiter-Glo Luminescent Cell Viability Assay; settings: 24 h, doses used in this study
# Method: HGPS fibroblasts, HGPS derived iPS-MSC or iPS-VSMC viability was measured at 24 h post treatment with MG132 at the indicated concentrations using CellTiter-Glo Luminescent Cell Viability Assay. Results are reported as viability percentage of MG132-treated cells relative to untreated cells.
# progerin [3] = test: Immunofluorescence of subcellular progerin localization; settings: HGPS cell lines, 48 h MG132 exposure
# Method: Cells collected by centrifugation were spread onto polylysine-coated slides by centrifugation (300 rpm for 5 minutes) with a cytospin (Shandon). Cells were then fixed at room temperature for 10 minutes in 2% (w/v) paraformaldehyde in PBS pH 7.2. Slides were stored at −80° C. prior to use. Cells were permeabilized using 100 μL permeabilization buffer (0.5% Triton X-100, 50 mM NaCl, 300 mM sucrose, 20 mM HEPES pH 7.5, 3 mM MgCl2) for 3 minutes at RT. Non-specific antibody binding was blocked with 3% Bovine Serum Albumin in PBS (w/v) (PBS-BSA) for 30 minutes. The permeabilized cells were incubated with the primary antibodies for 3 h at 37° C. After washing, the cells were then incubated with secondary antibodies (A11001, A11058, Life Technologies; 1/400) for 20 minutes at 37° C. Nuclei were stained with DAPI (50 ng/ml) diluted in Vectashield (Abcys) for 10 minutes at RT. Samples were fixed in 4% paraformaldehyde for 5 min. […]
# It has been reported that the MG132 can lead to PML-NBs component proteins being translocated into the nucleolus. […] Therefore, nucleolus might function as an alternative sequestration site that immobilizes and temporarily stores accumulated progerin when proteasome-dependent degradation is blocked, as the inventors detected PML and LC3B cytosolic colocalization upon 24 h MG132 treatment (data not shown). […]
compound,measurement,setting,value
"CC(C)C[C@@H](C=O)NC(=O)[C@H](CC(C)C)NC(=O)[C@H](CC(C)C)NC(=O)OCc1ccccc1 [MG132, Z-Leu-Leu-Leu-al] (Cbz-Leu-Leu-Leu-aldehyde)",reduction in progerin amounts,"progerin [1]; 10 μM MG132, 6 h",31%
same,reduction in progerin amounts,"progerin [1]; 10 μM MG132, 24 h",58%
same,reduction in progerin amounts,"progerin [1]; 10 μM MG132, 48 h",65%
same,progerin level at longer treatment,"progerin [1]; cells solubilized with urea, 72 h of MG132 treatment",progerin reappears after 72 h of treatment
same,lamin C transcript levels,lamin C mRNA,much less pronounced decrease of lamin C transcript levels
same,viability / mortality,[2],do not induce significant mortality
same,subcellular progerin localization,progerin [3],progerin accumulates into autophagic vacuoles
